Assay results published in US20110020462A1, “NEW USE OF HISTONE DEACETYLASE INHIBITORS IN CHANGING MRJP3 PROTEIN IN ROYAL JELLY” (NATUREWISE BIOTECH & MEDICALS CORPORATION, priority 2009, published 2011).

Columns and labels:
[1] = system: larvae of the queen bee; assay: Growth (weight) of larvae of the queen bee fed royal jelly secreted by young worker bees fed the test substance in sugar water; type: in vivo, Apis mellifera
[2] = system: MRJP3; assay: Ratio of 68 to 64 kDa MRJP3 protein in royal jelly (SDS-PAGE); type: in vivo, Apis mellifera
Method: Beehives with the similar expression level of MRJP3 protein were selected for use, and two beehives were tested in each control or experimental group. On the first day, the honey originally contained in the beehives was removed by shaking, and the bees (Apis mellifera) were fed sugar water twice (normal sugar water for the control group and special sugar water for the experimental group) for two days. The special sugar water was a 10-fold dilution of the formulated sugar powder in water. On the third day, 1.5-day old larvae (which were the offspring of the same queen) were inserted into the beehives, and the bees were fed once (normal sugar water for the control group and special sugar water for the experimental group). After 24, 48, and 72 hrs, 20 larvae and the royal jelly in the cells of said 20 larvae were collected for qualitative, quantitative, and proteomic analyses.
For qualitative analysis, royal jelly and sterilized water at a weight ratio of 1:10 was mixed for extraction. A particular amount of the proteins in the aqueous layer were removed for determination of protein concentration by Bradford dye-binding method (Bio-Rad protein assay, Bio-Rad Laboratories, Inc.). The absorption at 595 nm of the protein samples was determined by Elisa Reader (Bio-TEK). […]

## CC(C)=CCC/C(C)=C/Cc1c(O)cc2c(c1O)C(=O)C[C@@H](c1ccc(O)c(O)c1)O2 [Propolin C, propolin C]
[1]; Example 4, 100 mg/kg, period of 48 to 72 hours, control around 3.58 fold
  larva weight increase: around 6.30 fold
[1]; Table 5, 50 mg/kg, 24 h, control 3.52
  Average weight of each larva: 2.40 mg
[1]; Table 5, 50 mg/kg, 48 h, control 13.45
  Average weight of each larva: 15.2 mg
[1]; Table 5, 50 mg/kg, 72 h, control 61.60
  Average weight of each larva: 70.17 mg
[1]; Table 5, 100 mg/kg, 24 h, control 3.52
  Average weight of each larva: 2.38 mg
[1]; Table 5, 100 mg/kg, 48 h, control 13.45
  Average weight of each larva: 13.48 mg
[1]; Table 5, 100 mg/kg, 72 h, control 61.60
  Average weight of each larva: 98.48 mg
[2]; 50 to 100 mg/kg
  protein components of the royal jelly secreted by young worker bees: significantly changed

## CC(C)=CCC/C(C)=C/Cc1c([C@@H]2CC(=O)c3c(cc(O)c(CC=C(C)C)c3O)O2)ccc(O)c1O [Propolin G, propolin G]
[1]; Example 5, 300 mg/kg, period of 24 to 48 hours, control around 1.60 fold
  larva weight increase: around 5.05 fold
[1]; Example 5, 300 mg/kg, period of 48 to 72 hours, control around 1.22 fold
  larva weight increase: around 5.79 fold
[1]; Table 6, 150 mg/kg, 24 h, control 5.23
  Average weight of each larva: 5.73 mg
[1]; Table 6, 150 mg/kg, 48 h, control 13.57
  Average weight of each larva: 54.2 mg
[1]; Table 6, 150 mg/kg, 72 h, control 30.07
  Average weight of each larva: 156.63 mg
[1]; Table 6, 300 mg/kg, 24 h, control 5.23
  Average weight of each larva: 3.93 mg
[1]; Table 6, 300 mg/kg, 48 h, control 13.57
  Average weight of each larva: 23.80 mg
[1]; Table 6, 300 mg/kg, 72 h, control 30.07
  Average weight of each larva: 161.73 mg
[1]; Table 6, 600 mg/kg, 24 h, control 5.23
  Average weight of each larva: 2.70 mg
[1]; Table 6, 600 mg/kg, 48 h, control 13.57
  Average weight of each larva: 13.67 mg
[1]; Table 6, 600 mg/kg, 72 h, control 30.07
  Average weight of each larva: 85.67 mg
[1]; Table 8, positive control 150 mg/kg, 24 h, control 1.9
  Average weight of each larva: 3.6 mg
[1]; Table 8, positive control 150 mg/kg, 48 h, control 13.3
  Average weight of each larva: 41.2 mg
[1]; Table 8, positive control 150 mg/kg, 72 h, control 38.4
  Average weight of each larva: 178.6 mg

## O=C(CCCCCCC(=O)Nc1ccccc1)NO [SAHA, suberoylanilide hydroxamide acid, reference compound]
[1]; Table 8, 5 mg/kg, 24 h, control 1.9
  Average weight of each larva: 4.0 mg
[1]; Table 8, 5 mg/kg, 48 h, control 13.3
  Average weight of each larva: 28.2 mg
[1]; Table 8, 5 mg/kg, 72 h, control 38.4
  Average weight of each larva: 149.3 mg
[1]; Table 8, 15 mg/kg, 24 h, control 1.9
  Average weight of each larva: 7.3 mg
[1]; Table 8, 15 mg/kg, 48 h, control 13.3
  Average weight of each larva: 41.0 mg
[1]; Table 8, 15 mg/kg, 72 h, control 38.4
  Average weight of each larva: 149.2 mg
[2]; 5 to 15 mg/kg
  ratio of the protein components of the royal jelly secreted by young worker bees: significantly changed
